What was measured:
[1] = test system: NADPH-depending multifunctional oxydase enzyme system of the liver; test: Hexobarbital-induced sleeping time (measurement of enzyme inducing activity); assay type: in vivo, CFLP male mice; details: for Hexobarbital-sleeping time, 1-hour pretreatment, average ± SE / Hexobarbital-sleeping time, 1-hour pretreatment, Δ% (percentage change related to the control) / Hexobarbital-sleeping time, 24-hour pretreatment, Δ% (percentage change related to the control) / Hexobarbital-sleeping time, 24-hour pretreatment, average ± SE: 40 mg./kg. p.o., hexobarbital 60 mg./kg. i.v.; for Hexobarbital-sleeping time, 1-hour pretreatment, average ± SE: control 35 ± 2.38; for Hexobarbital-sleeping time, 1-hour pretreatment, Δ% (percentage change related to the control) / Hexobarbital-sleeping time, 24-hour pretreatment, average ± SE: x: p < 0.001 compared to the control; for Hexobarbital-sleeping time, 24-hour pretreatment, average ± SE: control 34 ± 2.60
Excerpt: The biological activity and duration of activity of different endogenic and exogenic compounds are greatly influenced by the activity of the NADPH- (nicotinic acid amide-adenine-dinucleotide phosphate-) depending multifunctional oxydase enzyme system of the liver. There are numerous compounds known in the art, showing various pharmacological activities, which are capable of increasing or inducing the activity of the metabolising, multifunctional oxydase enzyme system of the liver [see e.g. Sher, S.P.: Toxicol. appl. Pharmacol. 18, 780 /1971/; G. J. Mannering: in A. Burger's Selected Pharmacological Testing Methods, 51-119 S., Marcel Dekker Inc., New York /1968/]. […] Therefore phenobarbital can successfully be used in the treatment of Czigler-Najjar and Cilbert syndroms and neonatal hyperbilirubinemia, though due to its hypnotic-sedative effect the inducing activity of this compound is not optimal [Vessel and J. E. Page: J. Clin. Invest. 48, 2202 /1969/; J. T. Wilson: Pediatrics 43, 424 /1969/].
For screening the enzyme inducing activity the change in the hexobarbital-induced sleeping time is conventionally measured. The inducing activity of the compounds of the general formula (I) according to the invention was compared to the corresponding activity of phenobarbital and to their own sedative effect, using the following test methods.
Determination of the sleeping time induced by hexobarbital (measurement of enzyme inducing activity)
After (a) one hour and (b) after 24-hour pretreatment with a 40 mg./kg. p.o. dose of the test compounds, the groups of test animals were administered a 60 mg./kg. i.v. dose of hexobarbital.
(§1) As test animals CFLP male mice weighing […]. were used.

[2] = test system: CFLP male mice; test: Potentiation of activity of sodium-barbital (measurement of the sedative activity); assay type: in vivo; details: for Number of the test animals fallen asleep in % of the control: 20 mg./kg. i.p., after one hour Na-barbital 100 mg./kg. i.p.
Protocol: Determination of the potentiation of activity of sodium-barbital (measurement of the sedative activity)
In the tests carried out [see S. Goldschmidt and R. Wohr: Z. physiol. Chem. 308, 9 /1957/; D. V. Parker: J. Pharm. Pharmac. 27, 729 /1975/] the test animals were pretreated with a 20 mg./kg. i.p. dose of the test compounds of the general formula (I) and after one hour were administered a 100 mg./kg. i.p. dose of Na-barbital.
as §1

[3] = Acute toxicity (p.o.); parameters: species or system CFLP male mice; details: mouse, in vivo, po, 14 days
Protocol: To the test animals 250 and 500 mg./kg. doses, resp. of the test compounds were administered orally and the number of the dead animals was registered for 14 days.
as §1

[4] = test system: metabolysing enzyme system of the liver; details: diseases caused by defectiveness of the metabolysing enzyme system of the liver; cited from earlier work

SMILES	Hexobarbital-sleeping time, 1-hour pretreatment, average ± SE ([1]; 1-hour pretreatment) [min]	Hexobarbital-sleeping time, 1-hour pretreatment, Δ% (percentage change related to the control) ([1]; 1-hour pretreatment)	Hexobarbital-sleeping time, 24-hour pretreatment, Δ% (percentage change related to the control) [1] [%]	Hexobarbital-sleeping time, 24-hour pretreatment, average ± SE [1] [min]	Sleeping time 1 hour after administration, in words ([1]; 1-hour pretreatment)	Number of the test animals fallen asleep in % of the control [2]	Narcotic effect of Na-barbital alone ([2]; 100 mg./kg. i.p. Na-barbital)	Increase of sleeping time relative to its original value ([1]; 1-hour pretreatment) [times]	LD50 at 336 h [3] [mg/kg]	Inducing activity in human diseases, in words [4]
C[C@@H]1C(=O)N(C)c2ccc(Cl)cc2[C@@H](c2ccccc2)N1C(N)=O (relative stereo) [Example 5, 3RS,5RS-1,3-Dimethyl-4-carbamoyl-5-phenyl-7-chloro-1,3,4,5-tetrahydro-2H-1,4-benzodiazepin-2-one]	37.3 ± 3.01	+6%	-73	9 ± 0.43	most favourable properties	20%				
C[C@@H]1N[C@@H](c2ccccc2)c2cc(Cl)ccc2N(C)C1=O [Example 1, 3S,5S-1,3-Dimethyl-5-phenyl-7-chloro-1,3,4,5-tetrahydro-2H-1,4-benzodiazepin-2-one]	67.2 ± 7.01	+91%	-43	19.5 ± 1.84		50%				
C[C@H]1N[C@H](c2ccccc2)c2cc(Cl)ccc2N(C)C1=O [Example 2, 3R,5R-1,3-Dimethyl-5-phenyl-7-chloro-1,3,4,5-tetrahydro-2H-1,4-benzodiazepin-2-one]	61.2 ± 5.21	+73%	-61	13.3 ± 0.54		.phi.				
C[C@H]1C(=O)N(C)c2ccc(Cl)cc2[C@H](c2ccccc2)N1C(N)=O [Example 3, 3S,5S-1,3-Dimethyl-4-carbamoyl-5-phenyl-7-chloro-1,3,4,5-tetrahydro-2H-1,4-benzodiazepin-2-one]	43.3 ± 4.18	+23%	-65	12.0 ± 0.83	most favourable properties	0%				
C[C@@H]1C(=O)N(C)c2ccc(Cl)cc2[C@@H](c2ccccc2)N1C(N)=O [Example 4, 3R,5R-1,3-Dimethyl-4-carbamoyl-5-phenyl-7-chloro-1,3,4,5-tetrahydro-2H-1,4-benzodiazepin-2-one]	43.3 ± 5.01	+23%	-71	9.9 ± 0.62	most favourable properties	.phi.				
CCC1(CC)C(=O)NC(=O)NC1=O [Na-barbital, sodium-barbital, reference compound]							no narcotic effect			
CCC1(c2ccccc2)C(=O)NC(=O)NC1=O [Phenobarbital, reference compound]	86.2 ± 7.51	+145%	-69	11.2 ± 0.35		60%		~3	191	shows an inducing activity in the case of human diseases

Source: patent publication US4329341A, “5-Phenyl-1,3,4,5-tetrahydro-2H-1,4-benzodiazepin-2-ones, and pharmaceutical compositions containing them” (Richter Gedeon Vegyeszeti Gyar Rt, priority 1980, dated 1982)
